# Measurements reported in PubChem BioAssay AID1963836 (Molecular Pharmacology Branch, DTP, NCI, 2024).
# System: 857933-349-R-J2-PDC complex spheroid viability
# Assay: Anticancer human tumor 857933-349-R-J2-PDC patient-derived colon adenocarcinoma cell line growth inhibition [POLQ]
# Details: for IC50: curve of first compound; for viability, T/C: stronger effect = lower value
# In short: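 PDC + HUVEC + MSC complex spheroids; POLQ inhibitors ± partner drugs; top conc. at/near clinical Cmax, else 10 microM (SN-38 1 microM), half-log dilutions; 37 degrees C, 5% CO2.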
# [1] = second compound 0.0316 µM, first compound 0.0316 µM
# [2] = second compound 0.0316 µM, first compound 0.1 µM
# [3] = second compound 0.0316 µM, first compound 0.316 µM
# [4] = second compound 0.0316 µM, first compound 1 µM
# [5] = second compound 0.0316 µM, first compound 3.16 µM
# [6] = second compound 0.0316 µM, first compound 10 µM
# [7] = second compound 0.1 µM, first compound 0.0316 µM
# [8] = second compound 0.1 µM, first compound 0.1 µM
# [9] = second compound 0.1 µM, first compound 0.316 µM
# [10] = second compound 0.1 µM, first compound 1 µM
# [11] = second compound 0.1 µM, first compound 3.16 µM
# [12] = second compound 0.1 µM, first compound 10 µM
# [13] = second compound 0.316 µM, first compound 0.0316 µM
# [14] = second compound 0.316 µM, first compound 0.1 µM
# [15] = second compound 0.316 µM, first compound 0.316 µM
# [16] = second compound 0.316 µM, first compound 1 µM
# [17] = second compound 0.316 µM, first compound 3.16 µM
# [18] = second compound 0.316 µM, first compound 10 µM
# [19] = second compound 1 µM, first compound 0.0316 µM
# [20] = second compound 1 µM, first compound 0.1 µM
# [21] = second compound 1 µM, first compound 0.316 µM
# [22] = second compound 1 µM, first compound 1 µM
# [23] = second compound 1 µM, first compound 3.16 µM
# [24] = second compound 1 µM, first compound 10 µM
# [25] = second compound 3.16 µM, first compound 0.0316 µM
# [26] = second compound 3.16 µM, first compound 0.1 µM
# [27] = second compound 3.16 µM, first compound 0.316 µM
# [28] = second compound 3.16 µM, first compound 1 µM
# [29] = second compound 3.16 µM, first compound 3.16 µM
# [30] = second compound 3.16 µM, first compound 10 µM
# [31] = second compound 10 µM, first compound 0.0316 µM
# [32] = second compound 10 µM, first compound 0.1 µM
# [33] = second compound 10 µM, first compound 0.316 µM
# [34] = second compound 10 µM, first compound 1 µM
# [35] = second compound 10 µM, first compound 3.16 µM
# [36] = second compound 10 µM, first compound 10 µM
# 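Note: spheroids exposed to compounds for seven days before readout.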
smiles,measurement,setting,value
C#Cc1c(F)ccc2cc(O)cc(-c3ncc4c(N5CC6CCC(C5)N6)nc(OCC56CCCN5CC(F)C6)nc4c3F)c12 (centres undefined) + Cc1cccc(N(C)C(=O)C2C(O)CCN2c2nc(C)cc(C(F)(F)F)c2C#N)c1,IC50,second compound 0.0316 µM,> 10 µM
same,IC50,second compound 0.1 µM,> 10 µM
same,IC50,second compound 0.316 µM,> 10 µM
same,IC50,second compound 1 µM,> 10 µM
same,IC50,second compound 3.16 µM,> 10 µM
same,IC50,second compound 10 µM,> 10 µM
same,"viability, T/C",[1],91.7%
same,"viability, T/C",[2],105%
same,"viability, T/C",[3],101%
same,"viability, T/C",[4],89.2%
same,"viability, T/C",[5],89.4%
same,"viability, T/C",[6],82.8%
same,"viability, T/C",[7],107%
same,"viability, T/C",[8],97.8%
same,"viability, T/C",[9],96.3%
same,"viability, T/C",[10],76.8%
same,"viability, T/C",[11],89.2%
same,"viability, T/C",[12],74.2%
same,"viability, T/C",[13],101%
same,"viability, T/C",[14],110%
same,"viability, T/C",[15],103%
same,"viability, T/C",[16],80.3%
same,"viability, T/C",[17],96.1%
same,"viability, T/C",[18],91.4%
same,"viability, T/C",[19],87%
same,"viability, T/C",[20],87.1%
same,"viability, T/C",[21],85.6%
same,"viability, T/C",[22],87.5%
same,"viability, T/C",[23],91%
same,"viability, T/C",[24],87.6%
same,"viability, T/C",[25],97.7%
same,"viability, T/C",[26],90.2%
same,"viability, T/C",[27],85.9%
same,"viability, T/C",[28],90.8%
same,"viability, T/C",[29],101%
same,"viability, T/C",[30],84.2%
same,"viability, T/C",[31],80.8%
same,"viability, T/C",[32],86.9%
same,"viability, T/C",[33],91%
same,"viability, T/C",[34],75.1%
same,"viability, T/C",[35],90.9%
same,"viability, T/C",[36],81.3%
C=CC(=O)N1CCN(c2nc(=O)n(-c3c(C)ccnc3C(C)C)c3nc(-c4c(O)cccc4F)c(F)cc23)C(C)C1 (centres undefined) + Cc1cccc(N(C)C(=O)C2C(O)CCN2c2nc(C)cc(C(F)(F)F)c2C#N)c1,IC50,second compound 0.0316 µM,> 10 µM
same,IC50,second compound 0.1 µM,> 10 µM
same,IC50,second compound 0.316 µM,> 10 µM
same,IC50,second compound 1 µM,> 10 µM
same,IC50,second compound 3.16 µM,> 10 µM
same,IC50,second compound 10 µM,> 10 µM
same,"viability, T/C",[1],101%
same,"viability, T/C",[2],104%
same,"viability, T/C",[3],94.8%
same,"viability, T/C",[4],113%
same,"viability, T/C",[5],97.2%
same,"viability, T/C",[6],80.5%
same,"viability, T/C",[7],114%
same,"viability, T/C",[8],106%
same,"viability, T/C",[9],73%
same,"viability, T/C",[10],112%
same,"viability, T/C",[11],98.9%
same,"viability, T/C",[12],85.3%
same,"viability, T/C",[13],91.1%
same,"viability, T/C",[14],100%
same,"viability, T/C",[15],109%
same,"viability, T/C",[16],87.4%
same,"viability, T/C",[17],84.4%
same,"viability, T/C",[18],70%
same,"viability, T/C",[19],95.3%
same,"viability, T/C",[20],95.2%
same,"viability, T/C",[21],89.3%
same,"viability, T/C",[22],101%
same,"viability, T/C",[23],113%
same,"viability, T/C",[24],97.9%
same,"viability, T/C",[25],76.5%
same,"viability, T/C",[26],106%
same,"viability, T/C",[27],109%
same,"viability, T/C",[28],84%
same,"viability, T/C",[29],99.8%
same,"viability, T/C",[30],95.2%
same,"viability, T/C",[31],88.7%
same,"viability, T/C",[32],84.2%
same,"viability, T/C",[33],101%
same,"viability, T/C",[34],85.9%
same,"viability, T/C",[35],91.8%
same,"viability, T/C",[36],77.7%
